As usually defined, the inhibition is the share of the control response that was lost under treatment. A higher inhibition goes with a strong effect.

The target in one experiment is T1, Adrenergic β2 (Homo sapiens, UniProt P07550).
T1 construct: Adherent H292 cells are removed from tissue culture flasks by treatment with Accutase™ cell detachment solution; endogenous in cells; host or cells: H292 cells
The experiment can be described thus: Adrenergic β2 mediated cAMP production in H292 cells, single concentration 1 μM. In kind it is cell-based. The following applies: NCI-H292, 1 μM compound, cAMP as percentage of the maximum response generated by 1E-07M formoterol, read-out: β2 % effect @1 uM. The procedure:
The following experimental procedure was used to measure the beta-2% effect at 1 μM for the compounds of Examples 99-175. Adrenergic p2 Mediated cAMP Production Cell Preparation
H292 cells are grown in 225 cm2 flasks incubator at 37° C., 5% CO2 in RPMI medium containing 10% (v/v) FBS (foetal bovine serum) and 2 mM L-glutamine.
Compounds are prepared by an initial first dilution into DMSO to give 1 mM stock concentration. This is followed by a 1 in 10 dilution of the stock concentration (10 μl stock compound +90 μl DMSO) to give 0.1 mM compound. A compound addition plate is prepared by making a further 1 in 25 dilution in assay buffer (HBSS solution containing 10 mM HEPES pH7.4 and 5 mM glucose) containing 4% dimethylsulfoxide. The final compound concentration in assay is 1 μM.
Adherent H292 cells are removed from tissue culture flasks by treatment with Accutase™ cell detachment solution for 15 minutes. Flasks are incubated for 15 minutes in a humidified incubator at 37° C., 5% CO2. Detached cells are re-suspended in RPMI media (containing 10% (v/v) FBS and 2 mM L-glutamine) at 0.1×10^6 cells per mL. 10000 cells in 100 μL are added to each well of a tissue-culture-treated 96-well plate and the cells incubated overnight in a humidified incubator at 37° C., 5% CO2. The culture media is removed and cells are washed twice with 100 μL assay buffer and replaced with 50 μL assay buffer (HBSS solution containing 10 mM HEPES pH7.4 and 5 mM glucose). Cells are rested at room temperature for 20 minutes after which time 25 μL of rolipram (1.2 mM made up in assay buffer) is added. Cells are incubated with rolipram for 10 minutes after which time 25 μl test compounds are added and the cells are incubated for 60 minutes at room temperature. The final rolipram concentration in the assay is 300 μM and final vehicle concentration is 1% (v/v) dimethylsulphoxide. The reaction is stopped by removing supernatants, washing once with 100 μL assay buffer and replacing with 50 μL lysis buffer. The cell monolayer is frozen at −80° C. for 30 minutes (or overnight).
AlphaScreen™ cAMP Detection
The concentration of cAMP (cyclic adenosine monophosphate) in the cell lysate is determined using AlphaScreen™ methodology. The frozen cell plate is thawed for 20 minutes on a plate shaker then 10 μL of the cell lysate is transferred to a 96-well white plate. 40 μl of mixed AlphaScreen™ detection beads (containing equal volumes of donor beads (pre-incubated with biotinylated cAMP in the dark for 30 minutes) and acceptor beads is added to each well and the plate incubated at room temperature for 3 hours in the dark. The AlphaScreen™ signal is measured using an EnVision spectrophotometer (Perkin-Elmer Inc.) with the recommended manufacturer's settings. Concentration of cAMP produced per well were calculated with reference to the cAMP standard curve determined in the same experiment and expressed as a percentage of the maximum response generated by 1E-07M formoterol.
Background: Cyclic AMP is a second messenger, typically raised through Gs and lowered through Gi signalling.

Experiment [1] deals with T2, human muscarinic acetylcholine M3 receptor (Homo sapiens, UniProt P20309).
T2 construct: expressed in transfected cells; host or cells: CHO-K1 (Chinese Hamster Ovary) cell membranes
T2 sequence (P20309 whole entry): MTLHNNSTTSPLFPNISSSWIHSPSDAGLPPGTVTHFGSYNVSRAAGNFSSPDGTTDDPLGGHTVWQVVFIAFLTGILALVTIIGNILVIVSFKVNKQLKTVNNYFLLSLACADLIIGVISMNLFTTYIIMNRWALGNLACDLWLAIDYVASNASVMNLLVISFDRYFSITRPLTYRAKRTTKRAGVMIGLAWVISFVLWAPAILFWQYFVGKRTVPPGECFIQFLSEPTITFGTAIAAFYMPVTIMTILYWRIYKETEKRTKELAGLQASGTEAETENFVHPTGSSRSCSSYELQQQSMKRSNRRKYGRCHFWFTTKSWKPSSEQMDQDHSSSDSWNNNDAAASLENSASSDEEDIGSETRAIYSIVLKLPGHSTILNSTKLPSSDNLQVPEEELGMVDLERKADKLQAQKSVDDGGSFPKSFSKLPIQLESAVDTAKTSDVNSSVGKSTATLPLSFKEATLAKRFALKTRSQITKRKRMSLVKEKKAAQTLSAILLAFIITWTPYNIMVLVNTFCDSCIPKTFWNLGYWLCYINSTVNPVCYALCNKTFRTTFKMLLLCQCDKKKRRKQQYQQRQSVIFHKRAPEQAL
The experiment is described as follows: Muscarinic 3 receptor binding assay ([3H]NMS competition, SPA), single concentration 1 μM. As to conditions: 1 μM compound; % inhibition specific [3H]-NMS binding. As to the method: The following experimental procedure was used to determine the M3% inhibition at 1 μM of the compounds of Examples 99-175
Muscarinic 3 Receptor Binding Assay
The activity (% inhibition specific binding) of compounds on the M3 receptor is determined by competition binding of [^3H]N-methyl scopolamine (NMS) to CHO-K1 (Chinese Hamster Ovary) cell membranes expressing the human muscarinic acetylcholine M3 receptor (M3-ACh) in a scintillation proximity assay (SPA) format. SPA beads are precoated with membranes and then incubated at 2 mg of beads per well with 1 μM compound of the invention, [^3H]NMS at 0.1 nM, quarter Kd (experimentally determined dissociation constant) and assay buffer (20 mM HEPES pH 7.4 containing 5 mM MgCl2 and 0.1% (w/v) bovine serum albumin). The assay is conducted in a final volume of 200 μL, in the presence of 1% (v/v) dimethyl sulphoxide (DMSO). Total binding of [^3H]NMS is determined in the absence of competing compound and non-specific binding of [^3H]NMS is determined in the presence of 1 μM atropine. The plates are incubated for 16 hours at room temperature and then read on Wallac Microbeta™ using a normalised ^3H protocol. The compound activity at 1 μM, defined as % inhibition specific [^3H]-NMS binding, is determined.

T1 sequence (P07550 whole entry): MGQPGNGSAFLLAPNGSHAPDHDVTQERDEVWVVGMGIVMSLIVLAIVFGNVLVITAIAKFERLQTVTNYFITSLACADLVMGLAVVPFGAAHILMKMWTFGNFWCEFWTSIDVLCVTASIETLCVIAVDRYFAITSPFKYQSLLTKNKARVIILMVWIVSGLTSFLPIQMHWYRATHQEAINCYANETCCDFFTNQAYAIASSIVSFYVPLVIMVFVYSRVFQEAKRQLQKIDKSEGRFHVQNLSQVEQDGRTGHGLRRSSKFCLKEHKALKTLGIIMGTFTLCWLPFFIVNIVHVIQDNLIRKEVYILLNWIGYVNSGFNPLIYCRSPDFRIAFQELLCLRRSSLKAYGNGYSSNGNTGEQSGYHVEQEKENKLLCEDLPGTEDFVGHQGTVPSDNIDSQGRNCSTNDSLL

`O=C1COc2c(CCNCCN(C(=O)CCOCCc3cccc(CN4CCC5(CC4)CN(C(=O)c4cnccc4C(F)(F)F)CCO5)c3)C3CCCCC3)ccc(O)c2N1` [Example 121, N-Cyclohexyl-N-(2-(2-(5-hydroxy-3-oxo-3,4-dihydro-2H-benzo[b][1,4]oxazin-8-yl)ethylamino)ethyl)-3-(3-((4-(4-(trifluoromethyl)nicotinoyl)-1-oxa-4,9-diazaspiro[5.5]undecan-9-yl)methyl)phenethoxy)propanamide]: the percent of formoterol maximum response at 1 µM at Adrenergic β2 was found to be 84%. Further, the inhibition at 1 µM in experiment [1] came out at 88%.
On to `Cc1ccc2nc(C(=O)N3CCOC4(CCN(Cc5cccc(CCOCCC(=O)N(CCNCCc6ccc(O)c7c6OCC(=O)N7)C6CCCCC6)c5)CC4)C3)cn2c1` [Example 172, N-Cyclohexyl-N-(2-(2-(5-hydroxy-3-oxo-3,4-dihydro-2H-benzo[b][1,4]oxazin-8-yl)ethylamino)ethyl)-3-(3-((4-(6-methylimidazo[1,2-a]pyridine-2-carbonyl)-1-oxa-4,9-diazaspiro[5.5]undecan-9-yl)methyl)phenethoxy)propanamide], for which, at Adrenergic β2, the percent of formoterol maximum response at 1 µM amounted to 94%. The same compound displayed an inhibition at 1 µM in experiment [1] of 91%.
Turning to `O=C1COc2c(CCNCCN(C(=O)CCOCCc3cccc(CN4CCC5(CC4)CN(C(=O)CCCOCc4ccccc4)CCO5)c3)C3CCCCC3)ccc(O)c2N1` [Example 151, 3-(3-((4-(4-(Benzyloxy)butanoyl)-1-oxa-4,9-diazaspiro[5.5]undecan-9-yl)methyl)phenethoxy)-N-cyclohexyl-N-(2-(2-(5-hydroxy-3-oxo-3,4-dihydro-2H-benzo[b][1,4]oxazin-8-yl)ethylamino)ethyl)propanamide], on Adrenergic β2, the percent of formoterol maximum response at 1 µM turned out to be 113%. In experiment [1], this compound had an inhibition at 1 µM of 97%.
For the compound `Cc1nc2cc(C(=O)N3CCOC4(CCN(Cc5cccc(CCOCCC(=O)N(CCNCCc6ccc(O)c7c6OCC(=O)N7)C6CCCCC6)c5)CC4)C3)ccc2[nH]1` [Example 117, N-Cyclohexyl-N-(2-(2-(5-hydroxy-3-oxo-3,4-dihydro-2H-benzo[b][1,4]oxazin-8-yl)ethylamino)ethyl)-3-(3-((4-(2-methyl-1H-benzo[d]imidazole-5-carbonyl)-1-oxa-4,9-diazaspiro[5.5]undecan-9-yl)methyl)phenethoxy)propanamide], the percent of formoterol maximum response at 1 µM at Adrenergic β2 was 90%. In experiment [1], this compound returned an inhibition at 1 µM of 99%.
For `O=C1COc2c(CCNCCN(C(=O)CCOCCc3cccc(CN4CCC5(CC4)CN(C(=O)Cc4c[nH]c6ccccc46)CCO5)c3)C3CCCCC3)ccc(O)c2N1` [Example 141, 3-(3-((4-(2-(1H-Indol-3-yl)acetyl)-1-oxa-4,9-diazaspiro[5.5]undecan-9-yl)methyl)phenethoxy)-N-cyclohexyl-N-(2-(2-(5-hydroxy-3-oxo-3,4-dihydro-2H-benzo[b][1,4]oxazin-8-yl)ethylamino)ethyl)propanamide], the percent of formoterol maximum response at 1 µM at Adrenergic β2 was 108%. In experiment [1], this compound yielded an inhibition at 1 µM of 96%.
The corresponding values for `O=C1COc2c(CCNCCN(C(=O)CCOCCc3cccc(CN4CCC5(CC4)CN(C(=O)c4cccc6[nH]ccc46)CCO5)c3)C3CCCCC3)ccc(O)c2N1` [Example 168, 3-(3-((4-(1H-Indole-4-carbonyl)-1-oxa-4,9-diazaspiro[5.5]undecan-9-yl)methyl)phenethoxy)-N-cyclohexyl-N-(2-(2-(5-hydroxy-3-oxo-3,4-dihydro-2H-benzo[b][1,4]oxazin-8-yl)ethylamino)ethyl)propanamide] are 103% and 92%.
For `N#Cc1ccc(C(=O)N2CCOC3(CCN(Cc4cccc(CCOCCC(=O)N(CCNCCc5ccc(O)c6c5OCC(=O)N6)C5CCCCC5)c4)CC3)C2)cc1` [Example 156, 3-(3-((4-(4-Cyanobenzoyl)-1-oxa-4,9-diazaspiro[5.5]undecan-9-yl)methyl)phenethoxy)-N-cyclohexyl-N-(2-(2-(5-hydroxy-3-oxo-3,4-dihydro-2H-benzo[b][1,4]oxazin-8-yl)ethylamino)ethyl)propanamide], at Adrenergic β2, the percent of formoterol maximum response at 1 µM is 86%. Moreover, testing at 1 µM in experiment [1] gave an inhibition of 93%.
`COCCOc1ccc(C(=O)N2CCOC3(CCN(Cc4cccc(CCOCCC(=O)N(CCNCCc5ccc(O)c6c5OCC(=O)N6)C5CCCCC5)c4)CC3)C2)cc1` [Example 173, N-Cyclohexyl-N-(2-(2-(5-hydroxy-3-oxo-3,4-dihydro-2H-benzo[b][1,4]oxazin-8-yl)ethylamino)ethyl)-3-(3-((4-(4-(2-methoxyethoxy)benzoyl)-1-oxa-4,9-diazaspiro[5.5]undecan-9-yl)methyl)phenethoxy)propanamide]: at Adrenergic β2, the percent of formoterol maximum response at 1 µM stood at 82%. In experiment [1], this compound returned an inhibition at 1 µM of 95%.
For the compound `CCOc1ccccc1CC(=O)N1CCOC2(CCN(Cc3cccc(CCOCCC(=O)N(CCNCCc4ccc(O)c5c4OCC(=O)N5)C4CCCCC4)c3)CC2)C1` [Example 170, N-Cyclohexyl-3-(3-((4-(2-(2-ethoxyphenyl)acetyl)-1-oxa-4,9-diazaspiro[5.5]undecan-9-yl)methyl)phenethoxy)-N-(2-(2-(5-hydroxy-3-oxo-3,4-dihydro-2H-benzo[b][1,4]oxazin-8-yl)ethylamino)ethyl)propanamide], the percent of formoterol maximum response at 1 µM at Adrenergic β2 worked out at 112%. Also, the inhibition at 1 µM in experiment [1] came to 98%.
With `O=C1COc2c(CCNCCN(C(=O)CCOCCc3cccc(CN4CCC5(CC4)CN(C(=O)c4cccc(F)c4F)CCO5)c3)C3CCCCC3)ccc(O)c2N1` [Example 110, N-Cyclohexyl-3-(3-((4-(2,3-difluorobenzoyl)-1-oxa-4,9-diazaspiro[5.5]undecan-9-yl)methyl)phenethoxy)-N-(2-(2-(5-hydroxy-3-oxo-3,4-dihydro-2H-benzo[b][1,4]oxazin-8-yl)ethylamino)ethyl)propanamide], on Adrenergic β2, the percent of formoterol maximum response at 1 µM was 99%. In addition, the inhibition at 1 µM in experiment [1] was 100%.
Turning to `Cc1ncc(Br)cc1C(=O)N1CCOC2(CCN(Cc3cccc(CCOCCC(=O)N(CCNCCc4ccc(O)c5c4OCC(=O)N5)C4CCCCC4)c3)CC2)C1` [Example 118, 3-(3-((4-(5-Bromo-2-methylnicotinoyl)-1-oxa-4,9-diazaspiro[5.5]undecan-9-yl)methyl)phenethoxy)-N-cyclohexyl-N-(2-(2-(5-hydroxy-3-oxo-3,4-dihydro-2H-benzo[b][1,4]oxazin-8-yl)ethylamino)ethyl)propanamide], the percent of formoterol maximum response at 1 µM on Adrenergic β2 amounted to 97%. Further, the inhibition at 1 µM in experiment [1] came out at 96%.
As to `Cc1ccccc1C(=O)N1CCOC2(CCN(Cc3cccc(CCOCCC(=O)N(CCNCCc4ccc(O)c5c4OCC(=O)N5)C4CCCCC4)c3)CC2)C1` [Example 158, N-Cyclohexyl-N-(2-(2-(5-hydroxy-3-oxo-3,4-dihydro-2H-benzo[b][1,4]oxazin-8-yl)ethylamino)ethyl)-3-(3-((4-(2-methylbenzoyl)-1-oxa-4,9-diazaspiro[5.5]undecan-9-yl)methyl)phenethoxy)propanamide], at Adrenergic β2, the percent of formoterol maximum response at 1 µM worked out at 94%. This compound had an inhibition at 1 µM in experiment [1] of 98%.

The values are drawn from patent US8476265B2, “Compounds-801” (AstraZeneca AB, priority 2010, dated 2013).
